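Cells were grown in 96-well plates and exposed to each compound for 48 hours at five concentrations; endpoints were interpolated linearly between bracketing concentrations, or set to the highest concentration if not reached. Abbreviation: GI50, concentration required for 50% inhibition of growth.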 Activity calls are given as the source filed them. Cut-off read from the data, not from the text of the source: active = GI50 up to about 1.1 µM and inactive = higher. Residues, ends and D or L forms follow the SMILES beside them. *: point of attachment. Ethyl(2-NMe3+) = C[N+](C)(C)CC*; Boc = CC(C)(C)OC(=O)*
Legend:
Assay in all cases: inhibition of tumour cell growth, NCI panel, 48 h
[1] = system: 786-0
[2] = system: A498
[3] = system: A549
[4] = system: ACHN
[5] = system: BT-549
[6] = system: CAKI-1
[7] = system: COLO 205
[8] = system: DU-145
[9] = system: HCC 2998
[10] = system: HCT-116
[11] = system: HCT-15
[12] = system: HL-60
[13] = system: HOP-62
[14] = system: HOP-92
[15] = system: HT-29
[16] = system: Hs-578T
[17] = system: IGROV-1
[18] = system: K562
[19] = system: KM12
[20] = system: LOX IMVI
[21] = system: M14
[22] = system: MCF7
[23] = system: MDA-MB-231
[24] = system: MDA-MB-435
[25] = system: MDA-N
[26] = system: MOLT-4
[27] = system: Malme-3M
[28] = system: NCI-H226
[29] = system: NCI-H23
[30] = system: NCI-H460
[31] = system: NCI-H522
[32] = system: NCI/ADR-RES
[33] = system: OVCAR-3
[34] = system: OVCAR-4
[35] = system: OVCAR-5
[36] = system: OVCAR-8
[37] = system: PC-3
[38] = system: RPMI-8226
[39] = system: RXF 393
[40] = system: SF-268
[41] = system: SF-295
[42] = system: SF-539
[43] = system: SK-MEL-28
[44] = system: SK-MEL-2
[45] = system: SK-MEL-5
[46] = system: SK-OV-3
[47] = system: SN12C
[48] = system: SNB-19
[49] = system: SNB-75
[50] = system: SW-620
[51] = system: T47D
[52] = system: TK-10
[53] = system: U-251
[54] = system: UACC-257
[55] = system: UACC-62
[56] = system: UO-31
[57] = system: CCRF-CEM
[58] = system: EKVX

Measured: GI50

CC(NC(=O)C(Cc1ccc(OCC[N+](C)(C)C)cc1)NC(=O)OC(C)(C)C)C(=O)NC(Cc1ccccc1)C(=O)NCC(N)=O (stereo not given) (Boc-Y(Ethyl(2-NMe3+))AFG-NH2; configuration not given here)
inactive: [1] 10.4 µM | [2] 13.4 µM | [3] 36.8 µM | [4] 22.1 µM | [5] 20.2 µM | [6] 87.1 µM | [7] 75.7 µM | [8] 36.1 µM | [9] 16.5 µM | [10] 34.9 µM | [12] > 100 µM | [13] 2.44 µM | [14] 15.7 µM | [15] > 100 µM | [16] 22.4 µM | [17] 20.1 µM | [18] > 100 µM | [19] > 100 µM | [20] 30.4 µM | [21] 65.9 µM | [22] > 100 µM | [23] 2.75 µM | [24] > 100 µM | [25] > 100 µM | [26] > 100 µM | [27] 20.9 µM | [28] 22.7 µM | [29] 15.5 µM | [30] 70.5 µM | [31] 36.9 µM | [32] 36.9 µM | [33] 18.2 µM | [34] 38.1 µM | [35] 25.1 µM | [36] 12 µM | [37] > 100 µM | [38] > 100 µM | [39] 11.7 µM | [40] 10.1 µM | [41] 3.8 µM | [42] 11.4 µM | [43] > 100 µM | [44] 11.9 µM | [45] > 100 µM | [46] 10 µM | [47] 37.2 µM | [48] 13.2 µM | [49] 13.6 µM | [50] > 100 µM | [51] 43.8 µM | [52] 11.8 µM | [53] 3.24 µM | [54] 45.2 µM | [55] 25.9 µM | [56] 65.3 µM
> 100 µM: [11]

NCC(Cc1ccccc1)P(=O)(O)O (stereo not given)
inactive: [1] > 100 µM | [2] > 100 µM | [3] > 100 µM | [4] > 100 µM | [5] > 100 µM | [6] > 100 µM | [57] > 100 µM | [7] > 100 µM | [8] > 100 µM | [58] > 100 µM | [9] > 100 µM | [10] > 100 µM | [12] > 100 µM | [13] > 100 µM | [14] > 100 µM | [15] > 100 µM | [16] > 100 µM | [17] > 100 µM | [18] > 100 µM | [19] > 100 µM | [20] > 100 µM | [21] > 100 µM | [22] > 100 µM | [23] > 100 µM | [24] > 100 µM | [25] > 100 µM | [26] > 100 µM | [27] > 100 µM | [28] > 100 µM | [29] > 100 µM | [30] > 100 µM | [31] > 100 µM | [32] > 100 µM | [33] > 100 µM | [34] > 100 µM | [35] > 100 µM | [36] > 100 µM | [37] > 100 µM | [39] > 100 µM | [40] > 100 µM | [41] > 100 µM | [42] > 100 µM | [43] > 100 µM | [44] > 100 µM | [45] > 100 µM | [46] > 100 µM | [47] > 100 µM | [48] > 100 µM | [49] > 100 µM | [50] > 100 µM | [51] > 100 µM | [52] > 100 µM | [53] > 100 µM | [54] > 100 µM | [55] > 100 µM | [56] > 100 µM
> 100 µM: [11]

C[C@H](C1CC(C)(O)C(C)(O)C(O)O1)[C@H]1CC[C@H]2[C@@H]3[C@@H]4O[C@@H]4[C@@]4(O)CC=CC(=O)[C@]4(C)[C@H]3CC[C@]12C (stereo not given in full)
inactive: [1] 15.5 µM | [2] 22.4 µM | [3] > 50 µM | [4] 45.4 µM | [5] > 50 µM | [6] > 50 µM | [57] > 50 µM | [7] > 50 µM | [8] > 50 µM | [58] > 50 µM | [9] > 50 µM | [10] 36.9 µM | [12] > 50 µM | [13] 27.8 µM | [14] 33.6 µM | [15] > 50 µM | [17] > 50 µM | [18] > 50 µM | [19] > 50 µM | [20] > 50 µM | [21] > 50 µM | [22] > 50 µM | [23] 44 µM | [24] > 50 µM | [25] > 50 µM | [26] > 50 µM | [27] 2.67 µM | [28] 22.9 µM | [29] > 50 µM | [30] > 50 µM | [31] 18.2 µM | [32] > 50 µM | [33] > 50 µM | [34] > 50 µM | [35] > 50 µM | [36] 30.4 µM | [37] > 50 µM | [38] > 50 µM | [39] 22.1 µM | [40] 5.31 µM | [41] > 50 µM | [43] > 50 µM | [44] > 50 µM | [45] > 50 µM | [46] 14.8 µM | [47] > 50 µM | [48] > 50 µM | [49] 20.9 µM | [50] > 50 µM | [51] > 50 µM | [52] > 50 µM | [53] > 50 µM | [54] > 50 µM | [55] > 50 µM | [56] 7.55 µM
active: [16] 0.039 µM
> 50 µM: [11]

— ChEMBL document CHEMBL1201862, “PubChem BioAssay data set” (2004)
